Experimental data: patent US20240228474A1, “ANTIBACTERIAL COMPOUND” (DISCUVA LIMITED, priority 2021, published 2024)
Converted amounts (≈) assume the structure as drawn.

Key:
E. coli UT189 = assay: Further murine urinary tract infection study, intravenous infusion; format: in vivo; settings: 96 h
Description: Compound (I) was evaluated in further proof-of-concept studies in murine models for the treatment of a respiratory infection with Gram-negative bacteria of the order Enterobacterales, and a urinary tract infection with Gram-negative bacteria of the order Enterobacterales. Each dot, triangle or square indicator represents a single mouse. LOD refers to the limit of detection of the bacteria. […] Each of the proof-of-concept studies was carried out separately. By vehicle is meant pharmaceutically acceptable excipient or carrier. For the further proof-of-concept study for the treatment of a urinary tract infection with Enterobacterales, female C3H/HeN mice were infected with E. coli UT189. Twenty-four hours after infection (‘pre-treatment’ in FIGS. 6a-c), mice were either treated with a vehicle control (20% hydroxypropyl β cyclodextrin) containing no compound (I), or a vehicle (20% hydroxypropyl β cyclodextrin) containing compound (I), administered by intravenous infusion for 1 hour (QD) with a dose of 20 mg/kg of compound (I). For some mice who received vehicle containing compound (I), an additional 1-hour continuous intravenous infusion was administered 5 hours after the time at which the first administration begun (BID, 5 hrs apart). The once or twice daily administration was continued for three days. For QD, administration took place between 24 to 25 hours, 48 to 49 hours, and 72 to 73 hours after infection, and for BID, administration took place between 24 to 25 hours, 29 to 30 hours, 48 to 49 hours, 53 to 54 hours, 72 to 73 hours and 77 to 78 hours after infection.

[1] = system: Proteus mirabilis (DSM 4479); assay: MIC by broth microdilution (CLSI); format: cell-based; settings: DSM4479
Description: (§1) Minimum Inhibitory Concentrations (MICs) versus Escherichia coli (NCTC 13441) and Klebsiella pneumoniae (NCTC 13438) (planktonic bacteria) were determined by the broth microdilution procedure in line with the guidelines of the Clinical and Laboratory Standards Institute (Clinical and Laboratory Standards Institute. Methods for Dilution Antimicrobial Susceptibility Tests for Bacteria That Grow Aerobically, Approved Standard-Eleventh Edition, CLSI document M07, 11 Jan. 2018). The broth dilution method involved a two-fold serial dilution of compounds in 96-well microtitre plates, giving a final concentration range of 0.39-200 μM and a maximum final concentration of 2% DMSO. The bacterial strains tested were Escherichia coli (NCTC 13441) and Klebsiella pneumoniae (NCTC 13438). Strains were grown in cation-adjusted Müller-Hinton broth or on Luria Bertani agar at 37° C. in an ambient atmosphere. The MIC (μM) was determined as the lowest concentration of compound that inhibits growth following a 20-24 hour incubation period.
Minimum Inhibitory Concentrations (MICs) versus Proteus mirabilis (DSM 4479) were determined for compound (I) and comparative compounds (II) and (III) using the methodology outlined above.

Permeability = format: in vitro ADME
[2] = system: Klebsiella pneumoniae (NCTC 13438); assay: MIC by broth microdilution (CLSI); format: cell-based; settings: NCTC13438, planktonic bacteria, 20-24 hour incubation
Description: as §1

[3] = system: Escherichia coli (NCTC 13441); assay: MIC by broth microdilution (CLSI); format: cell-based; settings: NCTC13441, planktonic bacteria, 20-24 hour incubation
Description: as §1

[4] = system: E. coli BAA-2469 (NDM-1 positive); assay: Murine bacteraemia / bloodstream infection proof-of-concept study, IV bolus; format: in vivo
Description: Compound (I) and comparative compound (III) were evaluated in proof-of-concept studies in murine models for the treatment of a respiratory infection with Gram-negative bacteria of the order Enterobacterales, a bacteraemia or bloodstream infection with Gram-negative bacteria of the order Enterobacterales, and a urinary tract infection with Gram-negative bacteria of the order Enterobacterales. Each dot, triangle or square indicator represents a single mouse. LOD refers to the limit of detection of the bacteria. […] Each of the proof-of-concept studies was carried out separately. By vehicle is meant pharmaceutically acceptable carrier or excipient.
For the proof-of-concept study for the treatment of a bacteraemia or bloodstream infection with Gram-negative bacteria of the order Enterobacterales, CD-1 mice were infected with human urine isolate E. coli BAA-2469 (NDM-1 positive). One hour after infection (‘pre-treatment’ in FIG. 3), a vehicle (20% hydroxypropyl β cyclodextrin) containing no compound (I) or comparative compound (III), or a vehicle (20% hydroxypropyl β cyclodextrin) containing compound (I) or comparative compound (III), was administered by as a single dose IV bolus at 20 mg/kg.

[5] = system: Providencia spp. (10 isolates); assay: MIC by broth microdilution (EUCAST), 10 isolates; format: cell-based
Description: (§2) Minimum Inhibitory Concentration (MIC90) versus 100 isolates of Escherichia coli and Klebsiella pneumonia were determined. The Minimum Inhibitory Concentration at which 90% of the isolates (strains) are inhibited (MIC90) were measured by broth microdilution in line with EUCAST susceptibility testing standards (www.eucast.org). Bacterial inocula were prepared at ca 1×10^6 CFU/mL by diluting 100-fold a 0.5 McFarland suspension. Antibacterial panels containing 50 μl of antibacterial solutions at 2× the final concentrations were diluted 2-fold with 50 μl of inoculum to give a final inoculum of ca 5×10^5 CFU/ml and desired test concentrations of antibacterial agents (0.03-64 μg/mL). The plates were incubated according to the guidelines of the Clinical and Laboratory Standards Institute (Clinical and Laboratory Standards Institute. Methods for Dilution Antimicrobial Susceptibility Tests for Bacteria That Grow Aerobically; Approved Standard-Eleventh Edition, CLSI document […], 11 Jan. 2018). The MIC90 (μg/ml) is the MIC value at which greater than or equal to 90% of the isolates (strains) within a test population are inhibited. Minimum Inhibitory Concentrations (MICs) versus Proteus spp. and Providencia spp. were determined for compound (I) and comparative compound (III) using the methodology outlined above for the 100 isolates of Escherichia coli and Klebsiella pneumonia.

[6] = system: Proteus spp. (10 isolates); assay: MIC by broth microdilution (EUCAST), 10 isolates; format: cell-based
Description: as §2

[7] = 1 h IV infusion 20 mg/kg BID (5 hrs apart) for three days
[8] = 1 h IV infusion 20 mg/kg QD for three days

MIC [1]: 25 µM (≈ 9.81 µg/mL)
permeability (Permeability): good permeability
MIC [2]: 1.56 to 3.13 µM (≈ 0.612 to 1.23 µg/mL)
MIC [3]: ≤ 0.39 µM
MIC Range [5]: 0.5 to 16 µg/mL
MIC Range [6]: 8 to 32 µg/mL
SMILES: Cc1cnccc1-c1[nH]c(N)nc1-c1ccc2c(c1)N(C(=O)C(C)(C)N)CCO2 [Compound (I), 2-amino-1-(6-(2-amino-5-(3-methylpyridin-4-yl)-1H-imidazol-4-yl)-2,3-dihydro-4H-benzo[b][1,4]oxazin-4-yl)-2-methylpropan-1-one]
reduction of bacterial burden in the bladder compared to vehicle (E. coli UT189; [7]): 5.84 log
reduction of bacterial burden in the kidney compared to vehicle (E. coli UT189; [7]): 4.3 log
reduction of bacterial burden in the urine compared to vehicle (E. coli UT189; [7]): 5.87 log
reduction of bacterial burden in the bladder compared to vehicle (E. coli UT189; [8]): 5.01 log
reduction of bacterial burden in the kidney compared to vehicle (E. coli UT189; [8]): 3.17 log
bacterial burden in the bladder at end of study (E. coli UT189; BID (5 hrs apart)): below the limit of detection (LOD)
bacterial burden in the kidney at end of study (E. coli UT189; BID (5 hrs apart)): below the limit of detection (LOD)
bacterial burden in the urine at end of study (E. coli UT189; BID (5 hrs apart)): below the limit of detection (LOD)
bacterial burden in the bladder at end of study (E. coli UT189; QD): below the limit of detection (LOD)
bacterial burden in the urine at end of study (E. coli UT189; QD): below the limit of detection (LOD)
reduction of bacterial burden in the urine compared to vehicle (E. coli UT189; female C3H/HeN mice, 1 h IV infusion 20 mg/kg QD for three days): 4.86 log
reduction of bacterial burden in the blood compared to vehicle ([4]; CD-1 mice, single dose IV bolus 20 mg/kg, 9 h from initial infection): 7.43 log
more efficacious than comparative compound (III), blood ([4]; difference in log reduction, 9 h): 2.5 log
bacterial burden (CFU) in the blood at end of study ([4]; single dose IV bolus 20 mg/kg, 9 h from initial infection): below the limit of detection (LOD)
